Measurements from article PMC13288994, “Identification and characterization of novel chikungunya virus polymerase inhibitors” (Journal of Virology, 2026).

How the values were obtained:
[1] = system: CHIKV-nLuc (181/25 strain); experiment: microbe, parasite or virus in culture; format: cell-based, Chikungunya virus; conditions: Chikungunya virus, 384-well format, read 20 h after infection, read-out: Normalized percent inhibition in primary screen
SARS-CoV-2-nLuc = experiment: microbe, parasite or virus in culture; format: cell-based; conditions: Severe acute respiratory syndrome coronavirus 2; VeroE6-TMPRSS2 cells; read-out: Antiviral potency (EC50 [µM]) SARS-CoV-2
HPIV3-nLuc = experiment: microbe, parasite or virus in culture; format: cell-based; conditions: Human respirovirus 3, Vero C1008; VeroE6 cells; read-out: Antiviral potency (EC50 [µM]) HPIV3
VSV-nLuc = experiment: microbe, parasite or virus in culture; format: cell-based; conditions: Vesicular stomatitis virus, Vero C1008, read-out: Antiviral potency (EC50 [µM]) VSV
RSV A2-L19F = experiment: microbe, parasite or virus in culture; format: cell-based; conditions: human respiratory syncytial virus; Hep-2 cells; read-out: Antiviral potency (EC50 [µM]) RSV
SINV-GLuc = experiment: microbe, parasite or virus in culture; format: cell-based; conditions: Sindbis virus, Vero C1008; VeroE6 cells; read-out: Antiviral potency (EC50 [µM]) SINV
in vitro [2] = conditions: African green monkey
in vitro [3] = conditions: human
VEEV-TC83-nLuc = experiment: microbe, parasite or virus in culture; format: cell-based; conditions: Venezuelan equine encephalitis virus, Vero C1008, read-out: Antiviral potency (EC50 [µM]) VEEV
CHIKV replicon = experiment: microbe, parasite or virus in culture; conditions: Chikungunya virus, U2OS, read-out: Antiviral potency (EC50 [µM]) CHKV replicon

| Compound | inhibition at 5 µM [1] | EC50 (SARS-CoV-2-nLuc) | EC50 (HPIV3-nLuc) | EC50 (VSV-nLuc) | EC50 (RSV A2-L19F) | EC50 (SINV-GLuc) | CC50 (in vitro [2]) | CC50 (in vitro [3]) | EC50 (VEEV-TC83-nLuc) | EC50 (CHIKV replicon) |
| --- | --- | --- | --- | --- | --- | --- | --- | --- | --- | --- |
| CCNc1nc(C)cc(N2CCN(C(=O)c3cc(Cl)ccc3OC)CC2)n1 [GAP-1350926] | 82.1% |  |  |  |  |  |  |  |  |  |
| CCNc1nc(C)cc(N2CCN(C(=O)c3ccc(F)cc3Cl)CC2)n1 [GAP-1358964] | 91.6% |  |  |  |  |  |  |  |  |  |
| CCNc1nc(C)cc(N2CCN(C(=O)c3ccccc3Cl)CC2)n1 [GAP-1358555] | 85.8% |  |  |  |  |  |  |  |  |  |
| Cc1ccc(NC(=O)c2oc3ccccc3c2NC(=O)c2nc(S(C)(=O)=O)ncc2Cl)cc1 [GAP-1027276] | 98.2% | > 20 µM | > 20 µM | > 20 µM | > 10 µM | > 20 µM | > 20 µM | 20 µM |  |  |
| CC(C)(C)c1ccc(C(=O)On2c(-c3ccccc3F)nc3ccccc3c2=O)cc1 [GAP-1000864] | 91% | > 20 µM | > 20 µM | > 20 µM | > 10 µM | > 20 µM | > 20 µM | > 20 µM |  |  |
| CCNc1nc(C)cc(N2CCN(C(=O)c3ccccc3Br)CC2)n1 [GAP-1354666] | 82.5% |  |  |  |  |  |  |  |  |  |
| CCNc1cc(C)nc(N2CCN(C(=O)c3cccc4ccccc34)CC2)n1 [GAP-1066658] | 95.4% | ~100 µM | ~100 µM | 60.9 µM | > 100 µM | > 100 µM | 88.5 µM | 61.5 µM | 75.8 µM | 0.61 µM |
| O=C(CSc1c2c(nc3cc(Cl)ccc13)CCCC2)Nc1ccc2c(c1)OCCO2 [GAP-1022901] | 82.1% | > 20 µM | > 20 µM | > 20 µM | > 10 µM | > 20 µM | > 20 µM | > 20 µM |  |  |
| CCS(=O)(=O)c1ncc(Cl)c(C(=O)Nc2nnc(C(C)C)s2)n1 [GAP-1027282] | 97.2% | > 20 µM | > 20 µM | > 20 µM | > 10 µM | > 20 µM | > 20 µM | 16.7 µM |  |  |
| Cn1nc(CN(C(=O)c2ccc(F)cc2)c2ccccc2)c2c1CCN(S(=O)(=O)Cc1ccccc1F)C2 [GAP-1081237] | 80.2% | > 100 µM | 64.9 µM | 65.2 µM | > 10 µM | 65.7 µM | > 100 µM | > 100 µM | 10 µM | 12.4 µM |
| CCN1CCc2nc3sc(C(=O)c4ccccc4)c(C)c3cc2C1 [GAP-1022776] | 85.7% | > 20 µM | > 20 µM | > 20 µM | > 10 µM | > 20 µM | 25.2 µM | 19.2 µM |  |  |
